Two molecules from patent US11691984B2, “Compounds and methods for DCAF-mediated protein degradation” (The Scripps Research Institute, priority 2018, dated 2023) can be followed below.

One test has as its target T1, BRD4 (Homo sapiens, UniProt O60885).
T1 construct: degradation of endogenous BRD4 in HEK293T cells; endogenous in cells; host or cells: HEK293T (A10, A16); HEK293 DCAF16+/+ and DCAF16-/- clones (A11)
Kind of test: Proteome-wide SILAC MS protein abundance in HEK293T cells: BRD4. The test is classed as cell-based. To be noted: 24 hours. Here is the method:
(§1) HEK293T light and heavy SILAC cells were treated with DMSO and KB02-JQ1 (20 μM) or KB02-SLF (2 μM) for 24 hours, respectively. Light and heavy cells were collected and lysed in 1% NP-40 lysis buffer with complete protease inhibitor cocktail. Cells were vortexed and sonicated for 5 pulses (40%, 4). The supernatant was collected after centrifugation at 16,000 g for 10 min at 4° C. Protein concentration was determined by DC assay. 50 μg proteome from light and heavy samples were mixed, followed by methanol/chloroform precipitation. […] Next, the ratio of the peak areas under the light and heavy signals (signal-to-noise ratio>2.5) was calculated. […] In addition, peptides detected as ‘singletons,’ where only the heavy ion of a peptide pair was identified, but that cleared all other filtering parameters, were given a default assigned ratio of ‘20,’ which is defined as any measured ratio that is ≥20 and is the maximum ratio reported here.” The median SILAC ratios from quantified peptides were used as measures of protein abundance. The following quality filters were further applied to generate the plot: (1) proteins must have at least two quantified peptides; (2) proteins must be present in both replicates; (3) for each protein, the standard deviation of measured ratios of peptides must be <1.0.

The target in another test is T2, ACAT1 (Homo sapiens, UniProt P24752).
T2 construct: endogenous in cells; host or cells: HEK293T
T2 sequence (P24752 34-427): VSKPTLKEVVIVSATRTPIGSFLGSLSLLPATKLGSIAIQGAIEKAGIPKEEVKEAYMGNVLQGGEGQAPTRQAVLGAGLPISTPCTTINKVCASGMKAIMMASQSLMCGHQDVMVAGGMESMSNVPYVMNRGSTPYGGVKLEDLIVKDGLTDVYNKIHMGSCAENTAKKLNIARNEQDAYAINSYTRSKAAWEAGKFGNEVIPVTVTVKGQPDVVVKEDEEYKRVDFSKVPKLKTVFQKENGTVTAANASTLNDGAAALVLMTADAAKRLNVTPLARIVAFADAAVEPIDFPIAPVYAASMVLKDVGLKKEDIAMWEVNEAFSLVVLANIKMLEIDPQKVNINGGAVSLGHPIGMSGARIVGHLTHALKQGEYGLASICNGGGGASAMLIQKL
Kind of test: Proteome-wide SILAC MS protein abundance in HEK293T cells: ACAT1. The test is classed as cell-based. As to conditions: 24 hours. The protocol:
as §1

SMILES strings stand for the structures.

Turning to `Cc1sc2c(c1C)C(c1ccc(Cl)cc1)=N[C@@H](CC(=O)NCCOCCOCCNC(=O)COc1ccc3c(c1)CCCN3C(=O)CCl)c1nnc(C)n1-2` [KB02-JQ1, (S)-2-((1-(2-chloroacetyl)-1,2,3,4-tetrahydroquinolin-6-yl)oxy)-N-(2-(2-(2-(2-(4-(4-chlorophenyl)-2,3,9-trimethyl-6H-thieno[3,2-f][1,2,4]triazolo[4,3-a][1,4]diazepin-6-yl)acetamido)ethoxy)ethoxy)ethyl)acetamide], the “BRD4 abundance (MS-based proteomics)” value on BRD4 (KB02-JQ1 20 μM) is listed as “selective degradation of BRD4”. The “ACAT1 abundance (MS-based proteomics)” value on ACAT1 (KB02-JQ1 20 μM) was “substantially decreased abundance”.

As for `CCC(C)(C)C(=O)C(=O)N1CCCC[C@H]1C(=O)O[C@H](CCc1ccc(OC)c(OC)c1)c1cccc(NC(=O)CCOCCOCCNC(=O)COc2ccc3c(c2)CCCN3C(=O)CCl)c1` [KB02-SLF, (R)-1-(3-(3-(2-(2-(2-((1-(2-chloroacetyl)-1,2,3,4-tetrahydroquinolin-6-yl)oxy)acetamido)ethoxy)ethoxy)propanamido)phenyl)-3-(3,4-dimethoxyphenyl)propyl (S)-1-(3,3-dimethyl-2-oxopentanoyl)piperidine-2-carboxylate], at BRD4 (KB02-SLF 2 μM), the “BRD4 abundance (MS-based proteomics)” value is given as “not BRD4”. For the same molecule, the “ACAT1 abundance (MS-based proteomics)” value at ACAT1 (KB02-SLF 2 μM) was “reductions in ACAT1”.
